Drawing on US10323036B2 (Nimbus Lakshmi, Inc., priority 2016, dated 2019), this text covers Kd for 30 compounds.

Where only a bound is given, the exact number is not on record here.

In the experiment the target is human TYK2 (JH2domain-pseudokinase) (Homo sapiens (Human), UniProt P29597). Description: TYK2 JH2 Domain Binding Assay (KINOMEscan). Conditions: Table 4, JH2 binding assay; read-out: JH2 Kd.
Chain of human TYK2 (JH2domain-pseudokinase) (P29597 556-888): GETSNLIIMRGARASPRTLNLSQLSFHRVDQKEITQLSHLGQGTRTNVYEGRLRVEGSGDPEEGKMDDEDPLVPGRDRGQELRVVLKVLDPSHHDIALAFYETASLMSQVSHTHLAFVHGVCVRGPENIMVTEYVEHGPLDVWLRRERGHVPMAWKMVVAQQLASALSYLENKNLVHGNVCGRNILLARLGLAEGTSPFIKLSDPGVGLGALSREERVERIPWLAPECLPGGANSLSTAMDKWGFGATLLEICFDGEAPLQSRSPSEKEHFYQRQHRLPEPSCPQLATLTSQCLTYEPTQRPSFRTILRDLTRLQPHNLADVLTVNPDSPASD
Usually Kd stands for the constant that tells how readily two partners part at equilibrium. For the compound `COc1c(Nc2cc(NC(=O)C3CC3)nc3[nH]n(C)c(=O)c23)cccc1-c1nc(C)n(C)n1` [Compound I-53], the Kd lay in the range of 0.1 to 0.5 nM.
As to `COc1c(Nc2cc(NC(=O)C3CC3)nc3[nH]n(C)c(=O)c23)cccc1-c1ncnn1C` [Compound I-54, N-(4-((2-methoxy-3-(1-methyl-1H-1,2,4-triazol-5-yl)phenyl)amino)-2-methyl-3-oxo-2,3-dihydro-1H-pyrazolo[3,4-b]pyridin-6-yl)cyclopropanecarboxamide], the Kd lay within 0.5 to 1 nM.
Under `COc1c(Nc2cc(NC(=O)C3CC3)nc3[nH]n(C)c(=O)c23)cccc1-c1cnn(C)c1` [Compound I-55, N-(4-((2-methoxy-3-(1-methyl-1H-pyrazol-4-yl)phenyl)amino)-2-methyl-3-oxo-2,3-dihydro-1H-pyrazolo[3,4-b]pyridin-6-yl)cyclopropanecarboxamide] stands 0.5 to 1 nM.
To `COc1c(Nc2cc(NC(=O)C3CC3)nc3[nH]n(C)c(=O)c23)cccc1-n1cccn1` [Compound I-56, N-(4-((2-methoxy-3-(1H-pyrazol-1-yl)phenyl)amino)-2-methyl-3-oxo-2,3-dihydro-1H-pyrazolo[3,4-b]pyridin-6-yl)cyclopropanecarboxamide] belongs 0.5 to 1 nM.
As for `COc1c(Nc2cc(NC(=O)C3CC3)nc3[nH]n(C)c(=O)c23)cccc1-c1ccn(C)n1` [Compound I-57], the Kd was less than 0.1 nM.
Under `COc1c(Nc2cc(Nc3ccc(N4CCCC4)cn3)nc3[nH]n(C)c(=O)c23)cccc1-c1nnn(C)n1` [Compound I-58, 4-((2-methoxy-3-(2-methyl-2H-tetrazol-5-yl)phenyl)amino)-2-methyl-6-((5-(pyrrolidin-1-yl)pyridin-2-yl)amino)-1,2-dihydro-3H-pyrazolo[3,4-b]pyridin-3-one] stands greater than 10 nM; under `COc1c(Nc2cc(Nc3ccc(C4CC4)cn3)nc3[nH]n(C)c(=O)c23)cccc1-c1nnn(C)n1` [Compound I-59, 6-((5-cyclopropylpyridin-2-yl)amino)-4-((2-methoxy-3-(2-methyl-2H-tetrazol-5-yl)phenyl)amino)-2-methyl-1,2-dihydro-3H-pyrazolo[3,4-b]pyridin-3-one], 0.1 to 0.5 nM; under `COc1c(Nc2cc(Nc3cccc(C(F)(F)F)n3)nc3[nH]n(C)c(=O)c23)cccc1-c1nnn(C)n1` [Compound I-60, 4-((2-methoxy-3-(2-methyl-2H-tetrazol-5-yl)phenyl)amino)-2-methyl-6-((6-(trifluoromethyl)pyridin-2-yl)amino)-1,2-dihydro-3H-pyrazolo[3,4-b]pyridin-3-one], 0.1 to 0.5 nM.
To `COc1ccccc1Nc1cc(NC(=O)C2CC2)nc2[nH]n(C)c(=O)c12` [Compound I-61, N-(4-((2-methoxyphenyl)amino)-2-methyl-3-oxo-2,3-dihydro-1H-pyrazolo[3,4-b]pyridin-6-yl)cyclopropanecarboxamide] belongs 1 to 10 nM.
Under `COc1c(Nc2cc(NC(=O)C3CC3)nc3[nH]n(C)c(=O)c23)cccc1-c1n[nH]c(C)n1` [Compound I-62] stands less than 0.1 nM; under `COc1c(Nc2cc(Nc3cccc(N4CC(OC)C4)n3)nc3[nH]n(C)c(=O)c23)cccc1-c1nnn(C)n1` [Compound I-63, 4-((2-methoxy-3-(2-methyl-2H-tetrazol-5-yl)phenyl)amino)-6-((6-(3-methoxyazetidin-1-yl)pyridin-2-yl)amino)-2-methyl-1,2-dihydro-3H-pyrazolo[3,4-b]pyridin-3-one], 0.1 to 0.5 nM; under `COc1c(Nc2cc(Nc3cncc(C#N)n3)nc3[nH]n(C)c(=O)c23)cccc1-c1nnn(C)n1` [Compound I-64, 6-((4-((2-methoxy-3-(2-methyl-2H-tetrazol-5-yl)phenyl)amino)-2-methyl-3-oxo-2,3-dihydro-1H-pyrazolo[3,4-b]pyridin-6-yl)amino)pyrazine-2-carbonitrile], less than 0.1 nM.
With `COc1c(Nc2cc(Nc3cccc(C4CC4)n3)nc3[nH]n(C)c(=O)c23)cccc1-c1nnn(C)n1` [Compound I-65, 6-((6-cyclopropylpyridin-2-yl)amino)-4-((2-methoxy-3-(2-methyl-2H-tetrazol-5-yl)phenyl)amino)-2-methyl-1,2-dihydro-3H-pyrazolo[3,4-b]pyridin-3-one], the Kd was in the range of 0.1 to 0.5 nM.
Under `CCNC(=O)c1cccc(Nc2cc(Nc3cccc(-c4nnn(C)n4)c3OC)c3c(=O)n(C)[nH]c3n2)n1` [Compound I-66, N-ethyl-6-((4-((2-methoxy-3-(2-methyl-2H-tetrazol-5-yl)phenyl)amino)-2-methyl-3-oxo-2,3-dihydro-1H-pyrazolo[3,4-b]pyridin-6-yl)amino)picolinamide] stands 0.5 to 1 nM; under `COCc1ccc(Nc2cc(Nc3cccc(C(F)(F)F)n3)nc3[nH]n(C)c(=O)c23)c(OC)c1` [Compound I-67, 4-((2-methoxy-4-(methoxymethyl)phenyl)amino)-2-methyl-6-((6-(trifluoromethyl)pyridin-2-yl)amino)-1,2-dihydro-3H-pyrazolo[3,4-b]pyridin-3-one], 1 to 10 nM.
Take `COCc1ccc(Nc2cc(Nc3cccc(C#N)n3)nc3[nH]n(C)c(=O)c23)c(OC)c1` [Compound I-68, 6-((4-((2-methoxy-4-(methoxymethyl)phenyl)amino)-2-methyl-3-oxo-2,3-dihydro-1H-pyrazolo[3,4-b]pyridin-6-yl)amino)picolinonitrile]: the Kd is 0.1 to 0.5 nM.
Under `COc1cc(C(=O)N2CCCC2)ccc1Nc1cc(NC(=O)C2CC2)nc2[nH]n(C)c(=O)c12` [Compound I-70, N-(4-((2-methoxy-4-(pyrrolidine-1-carbonyl)phenyl)amino)-2-methyl-3-oxo-2,3-dihydro-1H-pyrazolo[3,4-b]pyridin-6-yl)cyclopropanecarboxamide] stands 0.1 to 0.5 nM.
Under `COc1cc(C(=O)N2CCOCC2)ccc1Nc1cc(NC(=O)C2CC2)nc2[nH]n(C)c(=O)c12` [Compound I-71, N-(4-((2-methoxy-4-(morpholine-4-carbonyl)phenyl)amino)-2-methyl-3-oxo-2,3-dihydro-1H-pyrazolo[3,4-b]pyridin-6-yl)cyclopropanecarboxamide] stands 0.5 to 1 nM; under `COc1cc(CO)ccc1Nc1cc(Nc2cccc(C(F)(F)F)n2)nc2[nH]n(C)c(=O)c12` [Compound I-72, 4-((4-(hydroxymethyl)-2-methoxyphenyl)amino)-2-methyl-6-((6-(trifluoromethyl)pyridin-2-yl)amino)-1,2-dihydro-3H-pyrazolo[3,4-b]pyridin-3-one], 1 to 10 nM; under `COc1c(F)cccc1Nc1cc(Nc2cc(C)c(F)cn2)nc2[nH]n(C)c(=O)c12` [Compound I-73, 4-((3-fluoro-2-methoxyphenyl)amino)-6-((5-fluoro-4-methylpyridin-2-yl)amino)-2-methyl-1,2-dihydro-3H-pyrazolo[3,4-b]pyridin-3-one], 1 to 10 nM.
Under `COc1c(F)cccc1Nc1cc(Nc2cc(C)nc(C)n2)nc2[nH]n(C)c(=O)c12` [Compound I-74, 6-((2,6-dimethylpyrimidin-4-yl)amino)-4-((3-fluoro-2-methoxyphenyl)amino)-2-methyl-1,2-dihydro-3H-pyrazolo[3,4-b]pyridin-3-one] stands 0.1 to 0.5 nM.
Take `COc1c(F)cccc1Nc1cc(Nc2ccc(C)nn2)nc2[nH]n(C)c(=O)c12` [Compound I-75, 4-((3-fluoro-2-methoxyphenyl)amino)-2-methyl-6-((6-methylpyridazin-3-yl)amino)-1,2-dihydro-3H-pyrazolo[3,4-b]pyridin-3-one]: the Kd lay in the range of 0.1 to 0.5 nM.
To `COCc1ccnc(Nc2cc(Nc3cccc(F)c3OC)c3c(=O)n(C)[nH]c3n2)c1` [Compound I-76, 4-((3-fluoro-2-methoxyphenyl)amino)-6-((4-(methoxymethyl)pyridine-2-yl)amino)-2-methyl-1,2-dihydro-3H-pyrazolo[3,4-b]pyridin-3-one] belongs 1 to 10 nM.
Under `COc1c(F)cccc1Nc1cc(Nc2ccc(N3CCCCC3)cn2)nc2[nH]n(C)c(=O)c12` [Compound I-77, 4-((3-fluoro-2-methoxyphenyl)amino)-2-methyl-6-((5-(piperidin-1-yl)pyridin-2-yl)amino)-1,2-dihydro-3H-pyrazolo[3,4-b]pyridin-3-one] stands 1 to 10 nM.
To `COc1c(F)cccc1Nc1cc(Nc2ccn(C)n2)nc2[nH]n(C)c(=O)c12` [Compound I-78, 4-((3-fluoro-2-methoxyphenyl)amino)-2-methyl-6-((1-methyl-1H-pyrazol-3-yl)amino)-1,2-dihydro-3H-pyrazolo[3,4-b]pyridin-3-one] belongs 1 to 10 nM; to `COc1c(F)cccc1Nc1cc(Nc2ccc(C#N)cn2)nc2[nH]n(C)c(=O)c12` [Compound I-79, 6-((4-((3-fluoro-2-methoxyphenyl)amino)-2-methyl-3-oxo-2,3-dihydro-1H-pyrazolo[3,4-b]pyridin-6-yl)amino)nicotinonitrile], 1 to 10 nM; to `COc1c(F)cccc1Nc1cc(Nc2ccccn2)nc2[nH]n(C)c(=O)c12` [Compound I-80, 4-((3-fluoro-2-methoxyphenyl)amino)-2-methyl-6-(pyridin-2-ylamino)-1,2-dihydro-3H-pyrazolo[3,4-b]pyridin-3-one], 1 to 10 nM.
`COc1c(F)cccc1Nc1cc(Nc2cccc(C#N)n2)nc2[nH]n(C)c(=O)c12` [Compound I-81, 6-((4-((3-fluoro-2-methoxyphenyl)amino)-2-methyl-3-oxo-2,3-dihydro-1H-pyrazolo[3,4-b]pyridin-6-yl)amino)picolinonitrile]: the Kd lay in the range of 0.1 to 0.5 nM.
On to `COc1cc(C(=O)N2CCC2)ccc1Nc1cc(NC(=O)C2CC2)nc2[nH]n(C)c(=O)c12` [Compound I-82, N-(4-((4-(azetidine-1-carbonyl)-2-methoxyphenyl)amino)-2-methyl-3-oxo-2,3-dihydro-1H-pyrazolo[3,4-b]pyridin-6-yl)cyclopropanecarboxamide], for which the Kd lay within 0.1 to 0.5 nM.
Under `COc1c(F)cccc1Nc1cc(Nc2cc(C)ccn2)nc2[nH]n(C)c(=O)c12` [Compound I-83, 4-((3-fluoro-2-methoxyphenyl)amino)-2-methyl-6-((4-methylpyridin-2-yl)amino)-1,2-dihydro-3H-pyrazolo[3,4-b]pyridin-3-one] stands 1 to 10 nM.
